Measurements: ChEMBL document CHEMBL1759967, “Structure-based design and biological profile of (E)-N-(4-Nitrobenzylidene)-2-naphthohydrazide, a novel small molecule inhibitor of IκB kinase-β” (Eur J Med Chem, 2011)
Activity calls are given as the source filed them. The rule behind the calls is not given here.

Assays:
[1] = biological target: T1, Inhibitor of nuclear factor kappa-B kinase subunit beta (Homo sapiens) (UniProt O14920); details: Sf21, 30 uM
T1 sequence (whole entry): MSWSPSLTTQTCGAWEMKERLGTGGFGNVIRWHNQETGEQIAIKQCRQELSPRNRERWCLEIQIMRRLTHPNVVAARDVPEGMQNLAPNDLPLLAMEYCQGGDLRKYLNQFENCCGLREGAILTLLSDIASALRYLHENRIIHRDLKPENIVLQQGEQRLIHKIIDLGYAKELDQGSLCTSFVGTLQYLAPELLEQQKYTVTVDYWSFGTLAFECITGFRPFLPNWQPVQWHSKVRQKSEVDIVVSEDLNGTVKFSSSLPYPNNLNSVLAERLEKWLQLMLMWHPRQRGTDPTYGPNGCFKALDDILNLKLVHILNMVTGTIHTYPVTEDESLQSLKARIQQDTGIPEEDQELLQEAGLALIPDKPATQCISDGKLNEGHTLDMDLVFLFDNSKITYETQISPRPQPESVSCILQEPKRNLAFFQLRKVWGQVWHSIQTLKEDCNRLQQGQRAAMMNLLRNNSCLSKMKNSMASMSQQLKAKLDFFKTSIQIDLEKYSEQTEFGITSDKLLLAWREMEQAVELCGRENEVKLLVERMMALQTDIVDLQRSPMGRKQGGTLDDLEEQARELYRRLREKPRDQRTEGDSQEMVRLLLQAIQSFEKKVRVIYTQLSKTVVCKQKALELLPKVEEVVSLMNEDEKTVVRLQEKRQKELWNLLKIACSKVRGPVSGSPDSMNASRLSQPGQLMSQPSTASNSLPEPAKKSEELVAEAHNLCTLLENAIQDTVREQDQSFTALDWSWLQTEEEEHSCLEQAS
Description: Inhibition of human recombinant IKK-beta expressed in insect Sf21 cells using phospho-Ulight-IkappaB-alpha as substrate at 30 uM

[2] = biological target: T2, Inhibitor of nuclear factor kappa-B kinase subunit alpha (Homo sapiens) (UniProt O15111); details: Sf21, 30 uM
T2 sequence (whole entry): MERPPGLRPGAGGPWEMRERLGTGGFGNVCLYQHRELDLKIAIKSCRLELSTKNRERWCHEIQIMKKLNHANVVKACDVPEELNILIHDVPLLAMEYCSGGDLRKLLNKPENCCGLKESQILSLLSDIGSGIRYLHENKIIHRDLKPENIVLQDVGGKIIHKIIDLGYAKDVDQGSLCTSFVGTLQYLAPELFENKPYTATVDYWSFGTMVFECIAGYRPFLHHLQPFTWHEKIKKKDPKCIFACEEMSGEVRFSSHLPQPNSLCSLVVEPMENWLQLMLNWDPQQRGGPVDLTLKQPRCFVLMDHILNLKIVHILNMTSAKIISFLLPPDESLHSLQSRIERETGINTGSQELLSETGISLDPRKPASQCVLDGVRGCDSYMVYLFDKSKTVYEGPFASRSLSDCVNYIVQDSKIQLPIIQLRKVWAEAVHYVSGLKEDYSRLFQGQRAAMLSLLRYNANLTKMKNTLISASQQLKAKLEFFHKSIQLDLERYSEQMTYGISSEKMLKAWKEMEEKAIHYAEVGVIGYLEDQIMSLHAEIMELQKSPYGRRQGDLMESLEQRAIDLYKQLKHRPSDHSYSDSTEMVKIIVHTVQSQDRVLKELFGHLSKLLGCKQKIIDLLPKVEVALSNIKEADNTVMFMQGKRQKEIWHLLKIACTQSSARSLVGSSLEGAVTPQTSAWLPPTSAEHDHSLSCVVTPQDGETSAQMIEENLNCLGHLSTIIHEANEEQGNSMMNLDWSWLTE
Description: Inhibition of human recombinant IKK-alpha expressed in insect Sf21 cells using phospho-Ulight-IkappaB-alpha as substrate at 30 uM

[3] = biological target: Serine/threonine-protein kinase Chk2 (Homo sapiens) (UniProt O96017); assay: Inhibition of human CHK2 kinase expressed in insect Sf21 cells using phospho-CREBtide as substrate at 30 uM
Mus musculus [4] = organism: Mus musculus; details: Swiss, Ear, at 10 µmol/kg
[5] = biological target: T3, Inhibitor of nuclear factor kappa-B kinase subunit beta (Homo sapiens, UniProt O14920); assay: Inhibition of human recombinant IKK-beta expressed in insect Sf21 cells using phospho-Ulight-IkappaB-alpha as substrate
T3 sequence (O14920 whole entry): T1 sequence (whole entry)

Mus musculus [6] = assay: Antiinflammatory activity in Swiss mouse assessed as inhibition of arachidonic acid-induced ear edema at 10 to 100 umol/kg, ip administered 60 mins before arachidonic acid challenge measured after 1 to 6 hrs by electronic digital caliper; type: functional, organism-based

Sequence of Serine/threonine-protein kinase Chk2 (Homo sapiens) (O96017 whole entry): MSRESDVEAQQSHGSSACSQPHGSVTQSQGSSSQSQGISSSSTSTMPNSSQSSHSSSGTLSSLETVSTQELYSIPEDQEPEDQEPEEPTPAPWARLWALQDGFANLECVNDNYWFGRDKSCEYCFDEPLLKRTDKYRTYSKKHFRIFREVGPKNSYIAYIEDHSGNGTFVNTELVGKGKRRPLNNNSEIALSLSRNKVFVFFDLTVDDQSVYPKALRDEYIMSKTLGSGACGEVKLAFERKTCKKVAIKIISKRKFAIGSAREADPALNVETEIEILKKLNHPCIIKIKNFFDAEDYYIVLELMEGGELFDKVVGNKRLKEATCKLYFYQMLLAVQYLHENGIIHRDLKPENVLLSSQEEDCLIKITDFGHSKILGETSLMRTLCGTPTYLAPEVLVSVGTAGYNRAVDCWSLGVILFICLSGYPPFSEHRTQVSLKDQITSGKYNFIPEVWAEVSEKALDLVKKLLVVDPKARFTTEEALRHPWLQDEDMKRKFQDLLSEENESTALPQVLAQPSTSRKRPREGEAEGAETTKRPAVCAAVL

| SMILES | inhibition [1] | inhibition [2] | inhibition [3] | inhibition (Mus musculus [4]) | IC50 [5] | inhibition (Mus musculus [6]) |
| --- | --- | --- | --- | --- | --- | --- |
| COC(=O)c1ccc(/C=N/NC(=O)c2ccc3ccccc3c2)cc1 | 0% | 0% | 0% |  |  |  |
| O=C(O)c1ccc(/C=N/NC(=O)c2ccc3ccccc3c2)cc1 | 0% | 0% | 0% |  |  |  |
| NC(=O)c1sc(-c2ccsc2)cc1N |  |  |  | Active |  |  |
| O=C(N/N=C/c1ccc([N+](=O)[O-])cc1)c1ccc2ccccc2c1 | 1.2% | 0% | 0% | Active | 20 µM | Dose-dependent effect |
